# The METLIN SMRT retention time set (Domingo-Almenara et al. 2019)
# Test: gradient 5% acetonitrile 3 min, to 50% in 2 min, to 85% in 15 min, held 3 min, 100 µL/min
# Conditions: column: Zorbax Extend-C18 2.1 x 50 mm; eluents: water / acetonitrile, 0.1% formic acid
# In short: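 Data were gathered over 3 months by HPLC coupled to a quadrupole time-of-flight mass spectrometer, operated in positive and negative ionization mode. Mixtures of ~100 pure standards ran on a Zorbax Extend-C18 column (2.1 × 50 mm, 1.8 μm) at 100 μL/min, with water and acetonitrile each containing 0.1% formic acid and dead and dwell volumes of 40 μL and 900 μL. Retention time was read from adduct peaks picked by computer and checked manually.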
row,SMILES,RP-LC retention time [s]
1,CCNC(=O)C1CCCN(c2nc3ncn(CC(=O)Nc4ccc(F)c(F)c4)c(=O)c3s2)C1 (configuration not stated),670
2,CC1CCCN(c2nn(CC(=O)Nc3ccc(F)cc3)c(=O)c3ccccc23)C1 (configuration not stated),1090
3,c1ccc(-c2nc3nc4c(c(N5CCN(C6CCCCC6)CC5)n3n2)CCCC4)cc1,668
4,CCCN1CCN(C(=O)C2CCN(c3nc4ccc(-c5ccccc5)nc4s3)CC2)CC1,693
5,CC12CC(c3ccccc3O1)C(C(=O)Nc1nc(-c3ccccc3)cs1)C(=O)N2 (configuration not stated),996
6,Cc1ccc(-c2coc(-c3cccc(NS(=O)(=O)c4cccc5nsnc45)c3)n2)cc1,1180
7,CCN(CC)S(=O)(=O)c1ccc2c(c1)N(CC(=O)NCCC(C)C)C(=O)C1CCCCN21 (configuration not stated),991
8,CCc1nnc(-c2cccn2CC(=O)Nc2cc(OC)cc(OC)c2)o1,787
9,Cn1cnc(S(=O)(=O)N2CCCCC2c2nc(-c3cccnc3)n[nH]2)c1 (configuration not stated),594
10,CCN(CC)C(=O)c1ccc2c(c1)N(CC(=O)N1CCN(c3ncccn3)CC1)C(=O)CO2,666
11,CCOC(=O)c1ccc(Nc2c(-c3ccc(SC)cc3)nc3cnccn23)cc1,943
12,O=C(NCCn1cnc(-c2ccccc2)cc1=O)c1ccc2nsnc2c1,659
13,COc1ccc(Cl)cc1NC(=O)N1CCC(n2c(C)nc3cccnc32)CC1,682
14,COc1ccc(C(C)NC(=O)c2cn3nc(Cl)ccc3n2)cc1OC (configuration not stated),755
15,Cc1csc(-c2cc(S(=O)(=O)NCC3CC3)cn2CC(=O)N2CCCCC2)n1,905
16,Cc1ccc(C(=O)N2CCCC(COc3ccc(C(=O)N4CCOCC4)cc3)C2)cc1 (configuration not stated),793
17,CN(C)c1nccnc1OC1CCN(C(=O)C2CCOCC2)C1 (configuration not stated),605
18,Cc1cc(C2CCCN2C(=O)c2c(F)cccc2Cl)on1 (configuration not stated),773
19,Cc1ccc(CNC(=O)c2cn(C)nc2S(=O)(=O)N2CCSCC2)cc1,902
20,COc1nn(C)cc1C(=O)NCC(=O)NCCOc1ccc(F)cc1,626
21,Cc1nc(-c2csc(S(=O)(=O)N3CCC(C(=O)Nc4cccc(F)c4)CC3)c2)no1,925
22,O=C(CC(=O)N1CCN(c2ccccc2)CC1)Nc1ccc2nc3n(c(=O)c2c1)CCCCC3,720

row,SMILES,RP-LC retention time [s]
1,Cc1cc(C)cc(NC(=O)C2CCN(C(=O)c3ncn4c3COC(c3ccccc3)C4)CC2)c1 (configuration not stated),856
2,O=C(Nc1cnc(-c2cccnc2)nc1)C1CCC1,659
3,CCn1nccc1-c1cccc(-c2noc(C3CC(=O)N(c4cccc(Cl)c4)C3)n2)c1 (configuration not stated),1090
4,CC1=NS(=O)(=O)N(C)C=C1C(=O)OCc1nc(-c2ccc(C(F)(F)F)cc2)no1,1060
5,O=c1c2cnc3nc(-c4ccccc4)nn3c2ccn1CCc1c[nH]c2ccc(Cl)cc12,997
6,CC(C)n1c(N2CCN(C(=O)COc3ccc(F)cc3)CC2)cc(=O)n(C(C)C)c1=O,904
7,Cc1ccc(-c2nc3cc(C)ccn3c2NC(=O)c2ccc(Cl)cc2)cc1,742
8,Cc1ccc2c(=O)c(C(=O)N3CCOCC3)cn(CC(=O)NC3CCCCC3)c2n1,653
9,Cc1cccc(CNC(=O)c2ccc3c(c2)nc2n3CCN(C3CCCCC3)C2=O)c1,824
10,CC(C)c1nnc(-c2ccc(S(=O)(=O)NC3CCCCCC3)o2)o1,985
11,COc1ccc(N2Cc3cccc(C(=O)O)c3C2=O)cc1,816
12,CCCn1ccc2sc(C)c(C(=O)N3CCN(C(C)C)CC3)c2c1=O,587
13,O=C(Cn1cccc1-c1nnc(C2CCC2)o1)NCc1ccc(Cl)cc1,907
14,CC(C)C(C(=O)O)N1C(=O)c2cccc3cccc(c23)C1=O (configuration not stated),795
15,CCN1C(=O)CCc2cc(NC(=O)c3ccc(C)s3)ccc21,800
16,COc1cccc(NC(=O)Cn2nc3c(Oc4ccccc4C)nccn3c2=O)c1,866
17,CCCN1C(=O)COc2cc(-c3noc(C(=O)NCCc4ccc(S(N)(=O)=O)cc4)n3)ccc21,771
18,Cc1cc2nn(CC(=O)N3CCCC3)c(=O)n2c(Nc2ccc(F)c(C)c2)n1,643
19,COc1ccc(NC(=O)Cn2c(Nc3cc(C)cc(C)c3)nc(C)cc2=O)cc1Cl,849
20,CN(C)c1ccc(-c2nc3ccc(Cl)cn3c2Nc2ccc3c(c2)OCCO3)cc1,744
21,COc1ccc(Cl)cc1NS(=O)(=O)c1c(C)sc(C)c1-c1cc(C)[nH]n1,1040
22,O=C(Nc1ccc(N2CCN(C3CCCC3)C2=O)nc1)c1ccncc1,635

row,SMILES,RP-LC retention time [s]
1,Cc1ccccc1-c1nc(C2CCN(S(=O)(=O)c3ccccc3)CC2)no1,1140
2,Cc1ccc(-c2nc3ncccn3c2NCc2ccccc2)cc1,729
3,Cn1nc(CNC(=O)c2ccsc2)c2ccccc21,735
4,Cc1cc(C)cc(NC(=O)C2(C)Oc3cccnc3NC2=O)c1 (configuration not stated),702
5,O=C(N[C@H]1C[C@@H]2C[C@H]1N(C(=O)c1ccccc1Cl)C2)c1ccccc1,717
6,CC(C)(C)C(O)CCNC(=O)C(=O)NCc1ccccc1 (configuration not stated),740
7,Cc1ccc(-c2noc(C3CCCN3C(=O)c3ccc4c(c3)OCO4)n2)cc1 (configuration not stated),1000
8,Cc1cnn(CC(=O)N2CCC3(CCC3O)CC2)c1 (configuration not stated),607
9,Cc1cccc(N2CCN(S(=O)(=O)c3cc4n(c3)CCCN(C(C)C)C4=O)CC2)c1,921
10,COc1cc(OC)cc(C(=O)NCC2(O)CCOCC2)c1,589
11,CCC(=O)N1CCCN(C2=NS(=O)(=O)C(c3ccc(F)cc3)=C2C)CC1,698
12,Cc1ccc(NC(=O)N2CCC(N3CCN(Cc4ccccc4)C3=O)CC2)cc1F,872
13,CC(=O)N1CCc2cc(N3CC(C(=O)N4CCN(C5CCCCC5)CC4)CC3=O)ccc21 (configuration not stated),578
14,COc1cc(NC(=O)C2CCN(S(=O)(=O)c3c(C)nn(-c4ccccc4)c3C)CC2)cc(OC)c1,848
15,O=C(c1ccco1)N1CCCC(c2nn[nH]n2)C1 (configuration not stated),596
16,CC(C)Cn1nc2c(S(=O)(=O)N3CCOCC3)cccn2c1=O,707
17,COC(=O)c1ncn2c1C(=O)N(Cc1cccc(F)c1)C(C)(C(=O)NCc1ccc(C)cc1)C2 (configuration not stated),760
18,Cc1cc(N2CCN(S(=O)(=O)c3ccc(F)c(F)c3)CC2)nc(N2CCOCC2)n1,664
19,CN1C(=O)c2cccn2CC1CNS(=O)(=O)Cc1ccccc1 (configuration not stated),678
20,O=C(c1ccccc1Cl)N1CCCC(c2nnc(-c3cccs3)o2)C1 (configuration not stated),775
21,COc1ccc(-c2ccnn2-c2ccc(SCc3ccccc3C)nn2)cc1,1390
22,Cn1c(N2CCC(C(=O)N3CCC(Cc4ccccc4)CC3)CC2)cc(=O)n(C)c1=O,824

row,SMILES,RP-LC retention time [s]
1,Cc1ccc(Nc2nc(N3CCN(c4ncccn4)CC3)nc3c2C(=O)CCC3)cc1,1220
2,CCOC(=O)C1CCN(C(=O)CCC2CCN(c3cc(NC4CC4)ncn3)CC2)CC1,586
3,CC(C(=O)Nc1nc2ccc(S(C)(=O)=O)cc2s1)n1nnc2ccccc2c1=O (configuration not stated),706
4,CC(=O)N1c2ccc(S(=O)(=O)N3CCCCC3)cc2CC1C(=O)NCCN(C)Cc1ccccc1 (configuration not stated),676
5,Cc1nccn1-c1ccc(=O)n(CCNC(=O)Cn2nc(-c3ccc(F)cc3)ccc2=O)n1,780
6,C=CCn1c(=O)c2cnc(Nc3ccc(N4CCN(C)CC4)cc3)nc2n1-c1cccc(C(C)(C)O)n1,644
7,CCN(CC)C(=O)Cn1ccn2nc(-c3ccccc3)c(CO)c2c1=O,721
8,CCOC(=O)c1sc(NC(=O)CC(C)C)nc1-c1ccccc1,1050
9,Cn1c(=O)c(N2CCC(NC(=O)Nc3ccc(F)c(Cl)c3)CC2)nc2ccccc21,971
10,CC(C)n1cnc2cc(CNC(=O)c3ccccc3F)ccc21,606
11,CCOc1cccc(-c2noc(Cn3c(=O)n(-c4ccccc4C)c(=O)c4sccc43)n2)c1,1070
12,Cc1ccc(CNC(=O)C(C)Oc2cc(-c3ccccc3)c3c(C)nn(C)c3n2)o1 (configuration not stated),769
13,Cc1ccc(S(=O)(=O)CCc2nc3ccccc3n2CC(=O)O)cc1,607
14,Cc1ccc(C2Cn3nnc(-c4nc(-c5cccnc5)no4)c3CO2)c(C)c1 (configuration not stated),1040
15,COCCn1ccc2nc(C)c(C(=O)N3CCN(c4ncccn4)CC3)cc2c1=O,609
16,Cc1ccc(S(=O)(=O)N2CCC(n3cnc4c(C)cccc4c3=O)CC2)cc1C,1050
17,CCCN(CCC)C(=O)C1COC2(CCCCC2)N1C(=O)c1c(OC)cccc1OC (configuration not stated),864
18,COC(=O)c1[nH]c(C)c(C(=O)C(C)N(CC(C)C)C(=O)c2ccccc2Cl)c1C (configuration not stated),932
19,O=C(Nc1cc(Cl)cc(Cl)c1)N1CC(Cc2nc(-c3cnccn3)no2)C1,838
20,O=C(Nc1cccc(-c2ccccc2)c1)N1CCN(C(=O)Nc2cccc(-c3ccccc3)c2)CC1,980
21,Cc1ccccc1NS(=O)(=O)c1cc2c(s1)CCN(C(=O)C1CC1)C2,822
